Measured values published in paper PMC5515971, “Utility of spherical human liver microtissues for prediction of clinical drug-induced liver injury” (Archives of Toxicology, 2017).
Where two headings read alike, the source gives them in different places.

Tests used:
[1] = system: 3D human liver microtissues (hLiMT); assay: Cytotoxicity (cellular ATP, CellTiter-Glo 2.0) in 3D human liver microtissues, 14 day repeat-dose treatment; conditions: Homo sapiens, 336 h
[2] = system: 3D human liver microtissues (hLiMT); assay: alpha-GST release into hLiMT supernatant (ELISA); format: cell-based; conditions: 336 h, 14 days, release into medium, read-out: IC50 (α-GST assay)
[3] = system: 3D human liver microtissues (hLiMT); assay: Cytotoxicity (cellular ATP) in 3D human liver microtissues, 5-6 days treatment; format: cell-based; conditions: Homo sapiens; hLiMT, 5/6 days, ATP content; read-out: IC50 SHORT;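 further: Hanging-drop spheroids, seven-point dilution series, re-dosed on day 3, CellTiter-Glo 2.0 luminescence, normalized to 0.5 or 1% DMSO vehicle controls on the same plate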
[4] = system: primary human hepatocytes (PHH); assay: Cytotoxicity (cellular ATP, CellTiter-Glo) in 2D plated primary human hepatocytes, 48 h treatment; format: cell-based; conditions: Hepatocyte; 2D primary human hepatocytes (lot IZT), 48 h treatment, total cellular ATP content; read-out: Geomean IC50;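 further: 384-well plates, luminescence read-out, normalized to vehicle wells with 1% DMSO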
[5] = cited from earlier work
[6] = ref Chen et al 2016 / Chen et al 2011; cited from earlier work
[7] = cited from earlier work; for DILI category: clinical, from literature and product labels; for P/N (DILI positive / DILI negative): P = DILI severity categories 1, 2 and 3, N = categories 4 and 5
[8] = Clinical DILI severity categorization and DILI pattern; conditions: P = DILI severity categories 1, 2 and 3; N = categories 4 and 5
[9] = system: 3D human liver microtissues (hLiMT)
[10] = Hepatocyte, read-out: Geomean IC50 [µM]
[11] = human Cmax total, used for IC50/Cmax
[12] = human total plasma Cmax, ref literature values
[13] = Table 1, ref Garside et al. (2014)
[14] = clinical DILI severity category, 1-5
[15] = table S-5, ref Garside et al. 2014

| IC50 [2] | Structure (SMILES) | IC50 ([1]; read-out: IC50 (ATP-assay)) | IC50 ([1]; read-out: IC50 LONG) | IC50 [1, 10] | IC50 [3] | IC50 [4] | Cmax [5, 11] | Cmax [5, 12] | FDA DILI Classification DILI severity score [6] | LTKB DILI classification [6] | DILI severity category [7, 13] | DILI severity category [7, 14] | DILI category ([7]; ref Garside et al. 2014) | DILI severity category ([7]; table S-4, ref Garside et al. 2014) | DILI severity category [7, 15] | P/N (DILI positive / DILI negative) [8] | P/N (DILI positive / DILI negative) [7] | Geomean IC50/cmax [9] |
| --- | --- | --- | --- | --- | --- | --- | --- | --- | --- | --- | --- | --- | --- | --- | --- | --- | --- | --- |
| 3260 µM | CC(=O)Nc1ccc(O)cc1 [Acetaminophen] | 732 µM | 573 µM | ~573 µM | 911 µM | 4600 µM | 165000 nM | 165000 nM | – | – | – | – | – | – | – | – | – | – |
| 6.26 µM | C1CCC(C(CC2CCCCN2)C2CCCCC2)CC1 (stereo not drawn) [Perhexiline] | 2.01 µM | 2.5 µM | ~2.6 µM | 4.2 µM | 11.2 µM | – | – | 8 | most DILI concern | 1: Severe clinical DILI (N = 23) | 1. Severe Clinical DILI | 1. Severe Clinical DILI | 1 | 1. Severe Clinical DILI | – | – | – |
| 210 µM | O=C(O)Cc1ccccc1Nc1c(Cl)cccc1Cl [Diclofenac] | 45.6 µM | 61.4 µM | ~61.4 µM | 100 µM | > 500 µM | 10100 nM | 10100 nM | – | – | – | – | – | – | – | – | – | – |
| – | CCN(CC)C(=O)/C(C#N)=C/c1cc(O)c(O)c([N+](=O)[O-])c1 [Entacapone] | – | – | 152 µM | – | 100 µM | 3280 nM | 3280 nM | 0 | less DILI concern | 4: Enzyme elevations in clinic (N = 16) | 4. Enzyme Elevations in Clinic | 4. Enzyme Elevations in Clinic | – | – | N | N | – |
| – | CC(C)[N+](C)(CCOC(=O)C1c2ccccc2Oc2ccccc21)C(C)C [Propantheline] | – | – | > 50 µM | – | > 50 µM | 440 nM | 440 nM | 0 | no DILI concern | 5: No DILI (N = 25) | 5. No DILI | 5. No DILI | – | – | N | N | – |
| – | C[C@@H]1C[C@H]2[C@@H]3CCC4=CC(=O)C=C[C@]4(C)[C@@]3(F)[C@@H](O)C[C@]2(C)[C@@]1(O)C(=O)CO [Dexamethasone] | – | – | > 100 µM | – | > 100 µM | 220 nM | 220 nM | 3 | Ambiguous DILI concern | 4: Enzyme elevations in clinic (N = 16) | 4. Enzyme Elevations in Clinic | 4. Enzyme Elevations in Clinic | – | 4. Enzyme Elevations in Clinic | N | N | – |
| – | Cc1c(-c2ccccc2)oc2c(C(=O)OCCN3CCCCC3)cccc2c1=O [Flavoxate] | – | – | > 10 µM | – | > 10 µM | 1790 nM | 1790 nM | 0 | no DILI concern | 5: No DILI (N = 25) | 5. No DILI | 5. No DILI | – | – | N | N | – |
| – | Nc1c2c(nc3ccccc13)CCCC2 [Tacrine] | – | – | ~69.6 µM | – | 106 µM | – | – | – | – | – | – | – | – | – | – | – | 696.2 |
| – | CC(COc1ccccc1)N(CCCl)Cc1ccccc1 (stereo not drawn) [Phenoxybenzamine] | – | – | > 25 µM | – | > 50 µM | – | 200 nM | – | – | – | – | – | – | – | – | – | > 126.9 |
